Data on 21 compounds can be found in US4960771A, “Oxazolidinone penetration enhancing compounds” (priority 1988, dated 1990).

Structures can show the parent of a compound that is named as a salt. Where two headings read alike, the source gives them in different places.

The conditions of data set [1]: for permeation enhancing properties (conclusion in words): ISDN cream, vs control; for Average Cumulative Amount of ISDN in Micrograms permeating over 51 hours: cream, 1% ISDN + 1% enhancer.
The conditions of data set [2]: cited from earlier work.
The conditions of data set [3]: Barry et al., J. Pharm. Pharmacol. 37, 226 (1985); cited from earlier work.
For data set [4] the following is noted: 0.8% Clonidine; 75.2% compound + 25% isopropyl myristate vs 99.2% compound vs 99.2% DMSO; cited from earlier work.
Data set [5] is classed as in vitro ADME, human. On the procedure:
(§1) Sci. 75, 1094 (1986). […] All formulations were studied in triplicate.
The Indomethacin (INDO) gel formulation used in Example 32 was prepared as follows.

For data set [6] the following is noted: 1% Diazepam in 74% ethanol and 25% compound; cited from earlier work.
The conditions of data set [7]: for permeation enhancing properties (conclusion in words): ISDN cream, 51 hours; for Average Cumulative Amount of ISDN in Micrograms permeating over 51 hours: cream.
Data set [8] is described as follows: Permeation of Diltiazem hydrochloride (DZ) from cream through human stratum corneum (Example 35). In kind it is in vitro ADME.
From the text: as §1

For data set [9] the following is noted: Ishihara, C.A. 105: 48896 k (1986); cited from earlier work.
The next data set has as its system Murine Erythroleukemia. To be noted: Li et al., J. Med. Chem. 24, 1089 (1981); cited from earlier work.
The format of data set [10] is in vitro ADME, human. The conditions noted are these: for Average Cumulative Amount of PG in Micrograms permeating over 51 hours: patch, releasing media 30% ethanol in normal saline.
From the text: as §1
The procedure of Example 29 was repeated with Progesterone (PG) incorporated in transdermal patch formulations. The releasing media contained 30% ethanol in normal saline.

The format of data set [11] is in vitro ADME, human.
From the text: as §1
The source holds these as a separate data set.

For data set [12] the following is noted: for Average Cumulative Amount of ISDN in Micrograms permeating over 51 hours: patch.
For data set [13] the following is noted: cream.
Data set [14] is described as follows: Permeation of Morphine Sulfate (MS) from transdermal patch through human stratum corneum (Example 33). In kind it is in vitro ADME.
From the text: as §1
The procedure of Example 29 was repeated with Morphine Sulfate (MS) formulations incorporated in a transdermal patch.

Turning to `CCOCCCN1CCOC1=O` [Example 16, 3-(3-ethoxypropyl)oxazolidin-2-one], in data set [1], the “permeation enhancing properties (conclusion in words)” value (from here on “permeation enhancing properties”) is recorded as “superior permeation enhancing properties as compared to control” and the “Average Cumulative Amount of ISDN in Micrograms permeating over 51 hours” value is given as 1110.9 ± 84.1 Micrograms.
For `CC1COC(=O)O1` (centres unmarked) [propylene carbonate, 4-methyl-1,3-dioxolan-2-one], in data set [2], the solubility in water entry is reported as “water soluble”. Moreover, in data set [3], the “flux of model penetrants through human skin” value was “low flux”.
On to `CCCCCCCCCCCC1CNC(=O)N1` (centres unmarked) [Example 19, 4-undecylimidazolidin-2-one], for which, in data set [1], the “permeation enhancing properties” value is recorded as “superior permeation enhancing properties as compared to control” and the “Average Cumulative Amount of ISDN in Micrograms permeating over 51 hours” value amounted to 1318.4 ± 21.6 Micrograms.
With `CCCCN1CCN(CCOCC)C1=O` [Example 22, 1-butyl-3-(2-ethoxyethyl)imidazolidin2-one], in [1], the “permeation enhancing properties” value is listed as “superior permeation enhancing properties as compared to control” and the “Average Cumulative Amount of ISDN in Micrograms permeating over 51 hours” value is reported as 1091.2 ± 125.0 Micrograms.
Take `CN1CCN(C)C1=O` [1,3-dimethylimidazolidin-2-one]: the “tail arterial blood pressure” value in data set [4] is recorded as “no significant differences in tail arterial blood pressure in rats”.
As for `COc1ccc2c(c1)c(CC(=O)O)c(C)n2C(=O)c1ccc(Cl)cc1` [INDO, Indomethacin, reference compound], the “Average Cumulative Amount of INDO in Micrograms permeating over 51 hours” value worked out at 72 ± 9 Micrograms in [5] (cream, 1% INDO, no enhancer) and 304.8 ± 20 Micrograms in data set [5] (gel, 1% INDO, no enhancer (Control)).
As for `CCCCCN1CCN(CCCCC)C1=O` [1,3-dipentylimidazolidin-2-one], the “drug transport when combined with a polar substance such as ethanol” value in [6] is listed as “potentiates the drug transport”.
`CCCCCCCCCCC1COC(=O)N1C` (centres unmarked) [Example 2, 3-methyl-4-decyloxazolidin-2-one]: in data set [7], the “permeation enhancing properties” value is “superior permeation enhancing properties as compared to control and a known permeation enhancer”. The “Average Cumulative Amount of ISDN in Micrograms permeating over 51 hours” value in data set [7] (1% ISDN + 1.6% enhancer) was found to be 1020 ± 69 Micrograms.
Regarding `CCCCN1C(=O)N(CCC)C(OCC)C1OCC` (centres unmarked) [Example 12, 4,5-diethoxy-1-butyl-3-propylimidazolidin-2-one], in data set [1], the “permeation enhancing properties” value is “superior permeation enhancing properties as compared to control” and the “Average Cumulative Amount of ISDN in Micrograms permeating over 51 hours” value is 1057.7 ± 12.0 Micrograms.
For `COc1ccc([C@@H]2Sc3ccccc3N(CCN(C)C)C(=O)[C@@H]2OC(C)=O)cc1` [DZ, Diltiazem hydrochloride, reference compound], the “Average Cumulative amount of DZ in Micrograms permeating over 24 hours” value in data set [8] (5% DZ, no enhancer (Control)) worked out at 125.3 ± 37 Micrograms.
On to `CCCCN1C(=O)OCC1Cc1ccccc1` (centres unmarked) [Example 20, 3-butyl-4-benzyloxazolidin-2-one], for which, in data set [1], the “permeation enhancing properties” value was “superior permeation enhancing properties as compared to control” and the “Average Cumulative Amount of ISDN in Micrograms permeating over 51 hours” value was 1147.7 ± 36.0 Micrograms.
Taken in the same sequence, the figures for `CCCCCCCCOCCN1CCOC1=O` [Example 18, 3-(2-octyloxyethyl)oxazolidin-2-one] were “superior permeation enhancing properties as compared to control” and 1185.1 ± 94.7 Micrograms.
Regarding `O=C1OCCO1` [ethylene carbonate, 1,3-dioxolan-2-one], the “efficacy on addition to the composition” value in [9] is listed as “did not improve the efficacy”.
`CCCCCCCCCCCCN1CCCCCC1=O` [1-Dodecylhexahydro-2H-azepin-2-one, 1-Dodecyl-hexahydro-2H-azepin-2-one, reference compound]: the “Average Cumulative Amount of ISDN in Micrograms permeating over 51 hours” value in data set [7] (1% ISDN + 1.4% enhancer) worked out at 709 ± 170 Micrograms.
On to `CCN1CCCN(CC)C1=O` [1,3-diethyltetrahydropyrimidin-2-one, 1,3-diethyl], for which the “inducers of Murine Erythroleukemia differentiation” value with Murine Erythroleukemia is reported as “inducers of Murine Erythroleukemia differentiation”.
`CCCCN1CCCN(CCCC)C1=O` [1,3-dibutyltetrahydropyrimidin-2-one, 1,3-dibutyltetrahydro-pyrimidin-2-ones]: the “inducers of Murine Erythroleukemia differentiation” value in the data set with Murine Erythroleukemia is recorded as “inducers of Murine Erythroleukemia differentiation”.
`CC(=O)[C@H]1CC[C@H]2[C@@H]3CCC4=CC(=O)CC[C@]4(C)[C@H]3CC[C@]12C` [PG, Progesterone, reference compound]: the “Average Cumulative Amount of PG in Micrograms permeating over 51 hours” value in data set [10] (3% PG, no enhancer (Control)) came to 86 ± 61 Micrograms.
Consider `CCCCCCCCCCC1COC(=O)O1` (centres unmarked) [Example 10, 4-decyl-1,3-dioxolan-2-one], for which, in data set [1], the “permeation enhancing properties” value is given as “superior permeation enhancing properties as compared to control” and the “Average Cumulative Amount of ISDN in Micrograms permeating over 51 hours” value is listed as 1174.5 ± 37.2 Micrograms.
Taken in the same sequence, the figures for `CCCCCCCCCCCC1CN(C)C(=O)N1C` (centres unmarked) [Example 21, 1,3-dimethyl-4-undecylimidazolidin-2-one] were “superior permeation enhancing properties as compared to control” and 1257.0 ± 137.0 Micrograms.
For `CCCCCCCCCCC1COC(=O)N1` (centres unmarked) [Example 1, 4-Decyloxazolidin-2-one], the “permeation enhancement of Nicotine (conclusion in words)” value in data set [11] (cream and patch, vs control) is “enhances the permeation significantly over control”. The “Average Cumulative Amount of Nicotine in Micrograms permeating over 51 hours” value in data set [11] (cream, 1% Nicotine + 3% enhancer) came to 2002.0 ± 74.0 Micrograms; in data set [11] (cream, 5% Nicotine + 3% enhancer), 8497.2 ± 1195 Micrograms; in [11] (patch, 5% Nicotine + 3% enhancer) it was 208.1 ± 23.6 Micrograms; in [11] (patch, 10% Nicotine + 3% enhancer), 3520.0 ± 139.0 Micrograms. Also, the “advantage of incorporating enhancer (conclusion in words)” value in data set [5] (INDO gel and cream) is recorded as “clearly show the advantage of incorporating enhancer”. Further, the “Average Cumulative Amount of INDO in Micrograms permeating over 51 hours” value in [5] (cream, 1% INDO + 1% enhancer) turned out to be 128 ± 6.1 Micrograms; in [5] (gel, 1% INDO + 1% enhancer), 370.9 ± 56 Micrograms. Besides, in data set [7], the “permeation enhancing properties” value was “superior permeation enhancing properties as compared to control and a known permeation enhancer”. For the same compound, the figures for the “Average Cumulative Amount of ISDN in Micrograms permeating over 51 hours” value in [7] (1% ISDN + 1.4% enhancer), in data set [12] (3% ISDN (60%) + 8% enhancer) and in data set [12] (3% ISDN (100%) + 3% enhancer) were 1275 ± 104 Micrograms, 1438.4 ± 174 Micrograms and 1355.8 ± 262.5 Micrograms, respectively. The “permeation of ISDN from the transdermal patch (conclusion in words)” value in data set [12] (vs control) is “superior to the control”. The “Average Cumulative Amount of HC in Micrograms permeating over 24 hours” value in data set [13] (0.5% HC + 1% enhancer) came to 4.970 ± 0.79 Micrograms. Further, in data set [13] (vs control and commercial formulation), the “permeation of HC (conclusion in words)” value was “superior permeation as compared to control cream and to a commercial formulation with higher quantity of drug”. For the same compound, in data set [14] (MS patch), the “superiority of patch formulation containing enhancer (conclusion in words)” value is on record as “superiority of the transdermal patch formulation”. Moreover, the “Average Cumulative Amount of MS in Micrograms permeating over 51 hours” value in data set [14] (patch, 5% MS + 1% enhancer) stood at 622 ± 81.6 Micrograms. In addition, the “Average Cumulative amount of DZ in Micrograms permeating over 24 hours” value in [8] (5% DZ + 3% enhancer) stood at 303.0 ± 79.1 Micrograms. Moreover, the “permeation of Diltiazem hydrochloride through the skin (conclusion in words)” value in data set [8] (vs control) is given as “improves the permeation of Diltiazem hydrochloride through the skin significantly over the control”. In addition, the “superiority of transdermal patch containing enhancer (conclusion in words)” value in data set [10] (PG patch) is given as “superiority of the transdermal patch”. In addition, the “Average Cumulative Amount of PG in Micrograms permeating over 51 hours” value in [10] (3% PG + 5% enhancer) amounted to 434 ± 135 Micrograms.
On to `CCCCCCCCOC1C(OCCCCCCCC)N(C)C(=O)N1C` (centres unmarked) [Example 15, 4,5-dioctyloxy-1,3-dimethylimidazolidin-2-one], for which, in [1], the “permeation enhancing properties” value was “superior permeation enhancing properties as compared to control” and the “Average Cumulative Amount of ISDN in Micrograms permeating over 51 hours” value came to 1175.6 ± 33.6 Micrograms.
